Source: paper PMC11249646, “Small-Molecule Disruptors of the Interaction between Calcium- and Integrin-Binding Protein 1 and Integrin αIIbβ3 as Novel Antiplatelet Agents” (ACS Pharmacology & Translational Science, 2024)
Like-named read-outs stand apart in the source and are kept apart here.

Experiments:
[1] = target: T1, GST-CIB1 : F-αIIb peptide (Homo sapiens, UniProt Q99828); test: FP assay in the presence of glutathione (GSH), thiol reactivity; format: binding; settings: for GSH/CIB1 IC50 ratio: ratio of GSH (+) IC50 to GSH (-) IC50
T1 construct: made in house; host or cells: BL-21 plus RIL cells (E. coli)
T1 sequence (Q99828 1-191): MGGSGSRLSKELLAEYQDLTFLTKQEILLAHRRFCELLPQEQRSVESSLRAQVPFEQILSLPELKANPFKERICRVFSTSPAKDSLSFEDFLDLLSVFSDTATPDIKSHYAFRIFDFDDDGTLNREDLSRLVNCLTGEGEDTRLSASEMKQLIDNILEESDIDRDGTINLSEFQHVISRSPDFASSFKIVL

[2] = target: T2, GST-CIB1:F-αIIb interaction (Homo sapiens, UniProt Q99828); test: Gel-based (in-gel) binding assay; settings: 1 μM GST-CIB1, 400 nM F-αIIb; for Active in Gel Assay?: 60 μM, 1:2, 4-points
T2 construct: made in house; host or cells: BL-21 plus RIL cells (E. coli)
T2 sequence (Q99828 1-191): T1 sequence (Q99828 1-191)

[3] = target: T3, GST-CIB1 : F-scrambled peptide (Homo sapiens, UniProt Q99828); test: FP scrambled-peptide counter screen, 1536-well format; format: binding; settings: scrambled-peptide counterscreen; for COUNTERSCREEN Confirm?: YES/NO call; for COUNTERSCREEN Curve Class: qHTS curve class
T3 construct: made in house; host or cells: BL-21 plus RIL cells (E. coli)
T3 sequence (Q99828 1-191): T1 sequence (Q99828 1-191)

[4] = target: T4, CIB1 and αIIb interaction (GST-CIB1 : F-αIIb peptide) (Homo sapiens, UniProt Q99828); test: FP assay, 384-well format (screen); format: binding; set-up: 384-well SCREEN Efficacy (%): concentration or dose not given beside the values; settings: F-αIIb peptide; for 384-well SCREEN Confirm?: YES/NO; for IC50: read-out: 384-well SCREEN IC50
T4 construct: made in house; host or cells: BL-21 plus RIL cells (E. coli)
T4 sequence (Q99828 1-191): T1 sequence (Q99828 1-191)

[5] = target: T3, GST-CIB1 : F-scrambled peptide; test: FP scrambled-peptide counter screen, 384-well format; format: binding; settings: F-scrambled peptide; for 384-well COUNTERSCREEN Confirm?: *: Curve in opposite direction; for IC50: read-out: 384-well COUNTERSCREEN IC50
[6] = target: T5, CIB1 and αIIb interaction (CIB1-GST : F-αIIb peptide) (Homo sapiens, UniProt Q99828); test: FP assay, 1536-well qHTS format (primary and confirmatory screen); format: binding; settings: for CONFIRMATORY SCREEN Confirm?: YES/NO call; for CONFIRMATORY SCREEN Curve Class: qHTS curve class; for CONFIRMATORY SCREEN Curve Class / Curve Class: negative sign = inhibitory curve; for CONFIRMATORY SCREEN Efficacy (%) / Efficacy (%): negative = inhibition
T5 construct: made in house; host or cells: BL-21 plus RIL cells (E. coli)
T5 sequence (Q99828 1-191): T1 sequence (Q99828 1-191)

[7] = FP assay in the presence of glutathione (GSH +), read-out: GSH (+) Assay IC50
[8] = FP assay without glutathione (GSH -), read-out: GSH (-) Assay IC50
[9] = confirmatory screen, read-out: CONFIRMATORY SCREEN IC50
[10] = qHTS FP screen hits, Table S2, one class per curve where COUNT > 1

With `O=C1C(I)=CC(=C(c2cc(I)c([O-])c(I)c2)c2ccccc2C(=O)[O-])C=C1I.[Na+].[Na+]` [NCGC00161636-02] as the compound, how does the IC50 [1, 7] read?
Its IC50 is 28.2 µM.

And the IC50 [1, 8]?
Its IC50 is 15.9 µM.

And the “GSH Assay Result” value ([1]; thiol reactivity call: No change / Active)?
The value was “No change”.

What about the “Active in Gel Assay?” value [2] of the same compound?
The value was “YES”.

And the “Inhibited concentration in gel” value ([2]; concentrations tested 60, 30, 15, 7.5)?
Its value is 60 µM.

What about the “COUNTERSCREEN Efficacy (%)” value [3] of the same compound?
The value was 435%.

What about the “COUNTERSCREEN Confirm?” value [3] of the same compound?
Its value is “YES”.

What about the IC50 ([3]; read-out: COUNTERSCREEN IC50) of the same compound?
The IC50 was 89.1 µM.

What about the “384-well SCREEN Efficacy (%)” value [4] of the same compound?
Its value is 78%.

And the “384-well SCREEN Confirm?” value [4]?
The value was “YES”.

What about the IC50 [4] of the same compound?
Its IC50 is 31.6 µM.

And the “384-well COUNTERSCREEN Efficacy (%)” value [5]?
The value was 105%.

What about the “384-well COUNTERSCREEN Confirm?” value [5] of the same compound?
The value was “YES”.

What about the IC50 [5] of the same compound?
The IC50 was 14.1 µM.

And the IC50 ([6]; IC50 [μM], qHTS FP screen hits, Table S2)?
The IC50 was 17.8 µM.

And the “CONFIRMATORY SCREEN Confirm?” value ([6]; confirmatory screen)?
The value was “YES”.

And the “CONFIRMATORY SCREEN Curve Class” value ([6]; confirmatory screen)?
Its value is -1.2.

And the “CONFIRMATORY SCREEN Efficacy (%)” value ([6]; confirmatory screen)?
The value was -74%.

And the IC50 [6, 9]?
The IC50 was 11.2 µM.

And the “Efficacy (%)” value ([6]; qHTS FP screen hits, Table S2)?
The value was -47%.

And the “Curve Class” value [6, 10]?
Its value is -1.2.

What does the source list for `CN(C)C(=S)SSC(=S)N(C)C` [NCGC00091563-02, thiram, reference compound]?
IC50 [1, 7]: 8.3 µM; IC50 [1, 8]: 1 µM; GSH/CIB1 IC50 ratio [1]: 8.3; IC50 shift in the presence of GSH ([1]; with vs without 10 μM reduced GSH): 8.3 fold; Active in Gel Assay? [2]: YES; 384-well SCREEN Efficacy (%) [4]: 78%; 384-well SCREEN Confirm? [4]: YES; IC50 [4]: 2.8 µM; 384-well COUNTERSCREEN Efficacy (%) [5]: 44%; 384-well COUNTERSCREEN Confirm? [5]: YES; IC50 [5]: > 120 µM

Which IC50 ([1]; GSH (+) Assay IC50, FP assay in the presence of glutathione (GSH +)) does the source give for `S=C(SSC(=S)N1CCCCC1)N1CCCCC1` [NCGC00181776-01] here?
The IC50 was > 120 µM.

And the IC50 ([1]; GSH (-) Assay IC50, FP assay without glutathione (GSH -))?
The IC50 was 4.6 µM.

What about the “GSH/CIB1 IC50 ratio” value [1] of the same compound?
The value was 30.8.

`O=[N+]([O-])c1cnc(Sc2nnc(O)n2-c2ccc3c(c2)OCCO3)s1` [NCGC00263145-01] was tested. Which “Active in Gel Assay?” value [2] did it give?
Its value is “YES”.

And the “COUNTERSCREEN Efficacy (%)” value [3]?
The value was 15%.

What about the “COUNTERSCREEN Confirm?” value [3] of the same compound?
Its value is “YES”.

And the “COUNTERSCREEN Curve Class” value [3]?
Its value is 4.

What about the “384-well SCREEN Efficacy (%)” value [4] of the same compound?
Its value is 67%.

And the “384-well SCREEN Confirm?” value [4]?
Its value is “YES”.

And the IC50 [4]?
Its IC50 is 2.2 µM.

What about the “384-well COUNTERSCREEN Efficacy (%)” value [5] of the same compound?
Its value is 89%.

And the “384-well COUNTERSCREEN Confirm?” value [5]?
The value was “YES”.

What about the IC50 [5] of the same compound?
Its IC50 is 89.1 µM.

And the “CONFIRMATORY SCREEN Confirm?” value ([6]; confirmatory screen)?
Its value is “YES”.

And the “CONFIRMATORY SCREEN Curve Class” value ([6]; confirmatory screen)?
Its value is -1.4.

What about the “CONFIRMATORY SCREEN Efficacy (%)” value ([6]; confirmatory screen) of the same compound?
Its value is -64%.

What about the IC50 [6, 9] of the same compound?
Its IC50 is 11.2 µM.

And the “Efficacy (%)” value ([6]; qHTS primary screen hits, Table S2)?
Its value is -40%.

What about the “Curve Class” value ([6]; qHTS primary screen hits, Table S2, several classes where COUNT > 1) of the same compound?
The value was -2.2.

And the IC50 ([6]; qHTS primary screen hits, Table S2, read-out: IC50)?
The IC50 was 21.5 µM.

For `Br.CCCCCCCCCCCCCCCC[N+](C)(C)C.[Br-]` [NCGC00164283-07], which “COUNTERSCREEN Efficacy (%)” value [3] is on record?
The value was 0%.

What about the “COUNTERSCREEN Confirm?” value [3] of the same compound?
The value was “YES”.

And the “COUNTERSCREEN Curve Class” value [3]?
The value was 4.

And the “384-well SCREEN Efficacy (%)” value [4]?
Its value is 57%.

What about the “384-well SCREEN Confirm?” value [4] of the same compound?
Its value is “YES”.

And the IC50 [4]?
Its IC50 is 15.8 µM.

What about the “384-well COUNTERSCREEN Efficacy (%)” value [5] of the same compound?
The value was 44%.

What about the “384-well COUNTERSCREEN Confirm?” value [5] of the same compound?
The value was “YES”.

What about the IC50 [5] of the same compound?
Its IC50 is 2.5 µM.

What about the “CONFIRMATORY SCREEN Confirm?” value ([6]; confirmatory screen) of the same compound?
The value was “YES”.

What about the “CONFIRMATORY SCREEN Curve Class” value ([6]; confirmatory screen) of the same compound?
The value was -2.1.

What about the “CONFIRMATORY SCREEN Efficacy (%)” value ([6]; confirmatory screen) of the same compound?
Its value is -114%.

And the IC50 [6, 9]?
Its IC50 is 70.8 µM.

What about the “Efficacy (%)” value ([6]; qHTS FP screen hits, Table S2) of the same compound?
The value was -75%.

What about the “Curve Class” value [6, 10] of the same compound?
The value was -2.2.

What about the IC50 ([6]; qHTS FP screen hits, Table S2, read-out: IC50) of the same compound?
The IC50 was 79.4 µM.
